Data reported in ChEMBL document CHEMBL5614450, “SAR Study of 4,8-Disubstituted Pyrimido[5,4-d]pyrimidines Exhibiting Antitrypanosomal and Antileishmanial Activity” (ACS Med Chem Lett, 2024).

How the values were obtained:
[1] = Cytotoxicity against human A549 cells assessed as reduction in cell viability at 10 uM incubated for 24 hrs by Cell-Titer Glo luminescence assay; format: toxicity, cell-based; conditions: read-out: INH
[2] = Selectivity index, ratio of CC50 for cytotoxicity against human THP-1 cells to IC50 for anti-leishmanial activity against promastigote stage of Leishmania infantum MHOM/MA/67/ITMAP-263; format: toxicity, cell-based; conditions: read-out: Ratio CC50/IC50
[3] = Selectivity index, ratio of CC50 for cytotoxicity against human THP-1 cells to IC50 for anti-trypanosomal activity against trypomastigote blood stage of Trypanosoma brucei Lister 427; format: toxicity, cell-based; conditions: read-out: Ratio CC50/IC50
[4] = Selectivity index, ratio of CC50 for cytotoxicity against human THP-1 cells to IC50 for anti-leishmanial activity against luciferase expressing intracellular amastigote stage of Leishmania infantum MHOM/MA/67/ITMAP-263 infected in human THP-1 cells; format: toxicity, cell-based; conditions: read-out: Ratio CC50/IC50
CYP3A4 = CYP3A4 (Homo sapiens, UniProt P08684); experiment: Inhibition of human CYP3A4 expressed in insect cell microsomes at 10 uM preincubated for 20 mins followed by NADP+ and substrate addition and measured after 10 mins by fluorescence based analysis; format: ADME, Microsome; conditions: recombinant human CYP3A4 expressed in insect cell microsomes, time 30 min
CYP3A4, sequence (P08684 whole entry): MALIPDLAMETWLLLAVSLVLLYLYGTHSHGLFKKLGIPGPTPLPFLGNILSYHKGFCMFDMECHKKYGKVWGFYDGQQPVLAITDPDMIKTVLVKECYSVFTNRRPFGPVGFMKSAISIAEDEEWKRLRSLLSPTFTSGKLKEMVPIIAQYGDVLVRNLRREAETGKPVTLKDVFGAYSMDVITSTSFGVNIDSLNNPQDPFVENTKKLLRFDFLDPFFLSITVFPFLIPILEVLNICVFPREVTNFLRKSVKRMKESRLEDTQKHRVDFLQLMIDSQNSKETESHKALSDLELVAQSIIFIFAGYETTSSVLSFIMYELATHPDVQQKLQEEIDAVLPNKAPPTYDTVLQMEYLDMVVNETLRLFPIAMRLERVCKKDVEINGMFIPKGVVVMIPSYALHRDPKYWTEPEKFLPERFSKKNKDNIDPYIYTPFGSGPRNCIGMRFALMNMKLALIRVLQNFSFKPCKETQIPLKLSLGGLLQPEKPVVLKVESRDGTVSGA

[5] = Cytotoxicity against human THP-1 cells assessed as reduction in cell viability incubated for 72 hrs by MTT assay; format: toxicity, cell-based
hERG (KCNH2) = hERG (KCNH2) (Homo sapiens, UniProt Q12809); experiment: Displacement of tracer from hERG extracted from membrane at 10 uM incubated for 2 hrs by fluorescence polarization assay; format: toxicity, cell membranes; conditions: hERG membrane preparation, probe tracer (not named)
hERG (KCNH2), sequence (Q12809 whole entry): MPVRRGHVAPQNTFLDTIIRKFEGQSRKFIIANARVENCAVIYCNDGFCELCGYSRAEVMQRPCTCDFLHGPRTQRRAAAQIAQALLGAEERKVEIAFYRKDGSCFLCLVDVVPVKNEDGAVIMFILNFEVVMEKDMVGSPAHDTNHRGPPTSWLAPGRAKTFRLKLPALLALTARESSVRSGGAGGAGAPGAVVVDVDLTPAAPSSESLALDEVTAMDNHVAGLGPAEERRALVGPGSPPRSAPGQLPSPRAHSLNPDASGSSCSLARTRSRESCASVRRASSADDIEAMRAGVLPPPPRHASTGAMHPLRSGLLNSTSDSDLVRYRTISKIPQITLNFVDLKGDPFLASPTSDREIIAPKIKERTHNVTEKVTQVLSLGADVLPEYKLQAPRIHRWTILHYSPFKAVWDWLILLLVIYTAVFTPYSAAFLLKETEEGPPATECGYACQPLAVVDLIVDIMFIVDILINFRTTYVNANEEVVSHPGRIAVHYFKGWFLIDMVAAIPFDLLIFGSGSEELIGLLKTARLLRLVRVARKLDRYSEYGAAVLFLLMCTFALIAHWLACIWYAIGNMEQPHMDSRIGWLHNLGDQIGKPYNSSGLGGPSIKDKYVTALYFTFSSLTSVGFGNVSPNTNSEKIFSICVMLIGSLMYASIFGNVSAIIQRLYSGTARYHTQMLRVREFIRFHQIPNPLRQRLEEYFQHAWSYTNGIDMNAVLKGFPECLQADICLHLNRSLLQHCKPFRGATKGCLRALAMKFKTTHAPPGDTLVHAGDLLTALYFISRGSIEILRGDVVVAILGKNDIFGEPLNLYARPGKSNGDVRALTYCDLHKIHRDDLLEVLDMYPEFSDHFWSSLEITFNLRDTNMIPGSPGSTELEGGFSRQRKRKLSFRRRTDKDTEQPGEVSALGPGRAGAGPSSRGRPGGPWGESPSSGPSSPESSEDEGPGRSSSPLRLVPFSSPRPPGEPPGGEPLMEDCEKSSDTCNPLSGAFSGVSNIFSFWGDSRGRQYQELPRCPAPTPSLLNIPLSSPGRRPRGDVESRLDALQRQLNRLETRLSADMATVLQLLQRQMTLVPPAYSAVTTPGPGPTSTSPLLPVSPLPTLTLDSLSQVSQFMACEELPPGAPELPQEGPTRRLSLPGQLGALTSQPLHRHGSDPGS

Leishmania infantum [6] = experiment: Anti-leishmanial activity against luciferase expressing intracellular amastigote stage of Leishmania infantum MHOM/MA/67/ITMAP-263 infected in human THP-1 cells assessed as inhibition of parasite growth incubated for 72 hrs by Steady-Glo luciferase assay; format: functional, organism-based; conditions: MHOM/MA/67/ITMAP-263, THP-1, 72 h
Leishmania infantum [7] = experiment: Anti-leishmanial activity against promastigote stage of Leishmania infantum MHOM/MA/67/ITMAP-263 assessed as inhibition of parasite growth incubated for 72 hrs by resazurin-dye based assay; format: functional, organism-based; conditions: MHOM/MA/67/ITMAP-263, 72 h
Leishmania infantum [8] = experiment: Anti-leishmanial activity against luciferase expressing intracellular amastigote stage of Leishmania infantum MHOM/MA/67/ITMAP-263 infected in human THP-1 cells assessed as inhibition of parasite growth at 10 uM incubated for 72 hrs by Steady-Glo luciferase assay; format: functional; conditions: MHOM/MA/67/ITMAP-263, THP-1
Trypanosoma brucei = experiment: Anti-trypanosomal activity against trypomastigote blood stage of Trypanosoma brucei Lister 427 assessed as inhibition of parasite growth incubated for 72 hrs by resazurin-dye based assay; format: functional, organism-based; conditions: Lister 427, 72 h
[9] = Cytotoxicity against human HEK293 cells assessed as reduction in cell viability at 10 uM incubated for 24 hrs by Cell-Titer Glo luminescence assay; format: toxicity, cell-based; conditions: read-out: INH
Leishmania infantum [10] = experiment: Anti-leishmanial activity against promastigote stage of Leishmania infantum MHOM/MA/67/ITMAP-263 assessed as inhibition of parasite growth at 10 uM incubated for 72 hrs by resazurin-dye based assay; format: functional

With COc1ccc(Nc2ncnc3c(N/N=C/c4ccc(O)c(O)c4)ncnc23)cc1 the cytotoxicity at 24 h, 10 µM [1] was 39%, the selectivity ratio [2] was > 101 and the selectivity ratio [3] was > 182. The selectivity ratio [4] was > 32, the inhibition at 10 min, 10 µM (CYP3A4) was 2% and the CC50 at 72 h [5] was > 100000 nM. It also gave an inhibition at 2 h, 10 µM (hERG (KCNH2)) of 36%, an IC50 (Leishmania infantum [6]) of 3130 nM and an IC50 (Leishmania infantum [7]) of 990 nM. For the same compound, the inhibition at 10 µM (Leishmania infantum [8]) was 87%, the IC50 (Trypanosoma brucei) was 550 nM and the cytotoxicity at 24 h, 10 µM [9] was 18%. It also gave an inhibition at 10 µM (Leishmania infantum [10]) of 98%.
In the case of COc1ccc(Nc2ncnc3c(N/N=C/c4ccc(OC)c(OC)c4)ncnc23)cc1, the cytotoxicity at 24 h, 10 µM [1] is reported as 23%, the selectivity ratio [2] is reported as > 52 and the selectivity ratio [3] is reported as > 41. The selectivity ratio [4] was > 33, the inhibition at 10 min, 10 µM (CYP3A4) was 0% and the CC50 at 72 h [5] was > 100000 nM. The inhibition at 2 h, 10 µM (hERG (KCNH2)) was 0%, the IC50 (Leishmania infantum [6]) was 3000 nM and the IC50 (Leishmania infantum [7]) was 1930 nM. For the same compound, the inhibition at 10 µM (Leishmania infantum [8]) was 85%, the IC50 (Trypanosoma brucei) was 2440 nM and the cytotoxicity at 24 h, 10 µM [9] was 12%. The inhibition at 10 µM (Leishmania infantum [10]) was 98%.
In the case of COc1cccc(Nc2ncnc3c(N/N=C/c4ccc(O)c(O)c4)ncnc23)c1, the cytotoxicity at 24 h, 10 µM [1] is reported as 22%, the selectivity ratio [2] is reported as 30 and the selectivity ratio [3] is reported as > 39. The selectivity ratio [4] was 6, the inhibition at 10 min, 10 µM (CYP3A4) was 2% and the CC50 at 72 h [5] was > 50000 nM. For the same compound, the inhibition at 2 h, 10 µM (hERG (KCNH2)) was 18%, the IC50 (Leishmania infantum [6]) was 8510 nM and the IC50 (Leishmania infantum [7]) was 1670 nM. It also gave an inhibition at 10 µM (Leishmania infantum [8]) of 62%, an IC50 (Trypanosoma brucei) of 1280 nM and a cytotoxicity at 24 h, 10 µM [9] of 7%. For the same compound, the inhibition at 10 µM (Leishmania infantum [10]) was 94%.
